According to the supplement of paper PMC4862054:

Columns and labels:
Details in all cases: 72 h
CAL-148 [1] = test system: CAL-148
How it was run: (§1)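 Breast cancer cell lines (20 µl suspension) were seeded into 384-well plates holding compound at 5 concentrations in 10-fold steps over a compound-specific 10,000-fold range, then incubated 72 h. Cell death was read first by CellTox Green fluorescence (485/520 nm), then viability by CellTiter-Glo luminescence after 10 min at room temperature. Each plate was normalised to 0.1 % DMSO and a positive kill control. EC50 was fitted from the dose-response curves and censored at the top concentration.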

HCC1143 [2] = test system: HCC1143
How it was run: as §1

MCF-10A [3] = test system: MCF-10A
How it was run: as §1

HDQ-P1 [4] = test system: HDQ-P1
How it was run: (§2)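 Each 384-well plate was pre-loaded with compound dissolved in 5 µl medium, received breast cancer cells in 20 µl suspension, and was incubated 72 h. A 2.5 µl addition of CellTiter-Blue for 2 h at 37 °C was followed by a fluorescence read at 560/590 nm. Data were normalised per plate to vehicle and a positive kill control and checked by Z'-factor. EC50 was fitted from the percent-inhibition dose-response curve, censored at the highest concentration, excluding rows with a drug sensitivity score of zero.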

BT-474 = test system: BT-474
How it was run: as §2

BT-549 = test system: BT-549
How it was run: as §2

CAL-120 [5] = test system: CAL-120
How it was run: as §2

HCC1143 [6] = test system: HCC1143; remark: listed apart in the source
How it was run: as §2

HCC1599 [7] = test system: HCC1599
How it was run: as §2

HCC1937 [8] = test system: HCC1937
How it was run: as §2

Hs578T = test system: Hs578T
How it was run: as §2

MDA-MB-231 [9] = test system: MDA-MB-231
How it was run: as §2

MDA-MB-436 [10] = test system: MDA-MB-436
How it was run: as §2

MDA-MB-468 = test system: MDA-MB-468
How it was run: as §2

MFM-223 [11] = test system: MFM-223
How it was run: as §2

SK-BR-3 = test system: SK-BR-3
How it was run: as §2

CAL-120 [12] = test system: CAL-120; remark: listed apart in the source
Description: (§3)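 Drug sensitivity and resistance testing (DSRT) of breast cancer cell lines in 384-well plates, 5 concentrations in 10-fold dilutions over a compound-specific 10,000-fold range. After 72 h, cytotoxicity was read by CellTox Green fluorescence and viability by CellTiter-Glo luminescence (multiplexed), normalised to DMSO and benzethonium chloride controls. EC50 is the inflection point of the fitted dose-response curve (bottom asymptote free, so it can be relative for partial curves) and is censored at the highest tested concentration. Rows with DSS 0 (no meaningful response) were excluded.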

CAL-148 [13] = test system: CAL-148; remark: listed apart in the source
Description: as §3

HCC1143 [14] = test system: HCC1143; remark: listed apart in the source
Description: as §3

HCC1599 [15] = test system: HCC1599; remark: listed apart in the source
Description: as §3

HDQ-P1 [16] = test system: HDQ-P1; remark: listed apart in the source
Description: as §3

MCF-10A [17] = test system: MCF-10A; remark: listed apart in the source
Description: as §3

MDA-MB-231 [18] = test system: MDA-MB-231; remark: listed apart in the source
Description: as §3

MDA-MB-436 [19] = test system: MDA-MB-436; remark: listed apart in the source
Description: as §3

MFM-223 [20] = test system: MFM-223; remark: listed apart in the source
Description: as §3

MDA-MB-453 = test system: MDA-MB-453
Description: as §3

DU-4475 = test system: DU-4475
Description: as §3

HCC1937 [21] = test system: HCC1937; remark: listed apart in the source
Description: as §3

Row | Structure (SMILES) | EC50, CellTiter-Glo (HCC1143 [2]) | EC50, CellTiter-Blue viability (BT-474) | EC50, CellTiter-Blue viability (BT-549) | EC50, CellTiter-Blue viability (HCC1143 [6]) | EC50, CellTiter-Blue viability (HCC1599 [7]) | EC50, CellTiter-Blue viability (HCC1937 [8]) | EC50, CellTiter-Blue viability (MDA-MB-231 [9]) | EC50, CellTiter-Blue viability (MDA-MB-436 [10]) | EC50, CellTiter-Blue viability (MDA-MB-468) | EC50, CellTiter-Blue viability (SK-BR-3) | EC50, CellTiter-Glo (CAL-148 [1]) | EC50, CellTiter-Glo (MCF-10A [3]) | EC50, CellTiter-Blue viability (HDQ-P1 [4]) | EC50, CellTiter-Blue viability (CAL-120 [5]) | EC50, CellTiter-Blue viability (Hs578T) | EC50, CellTiter-Blue viability (MFM-223 [11]) | EC50, CellTox Green (CAL-120 [12]) | EC50, CellTox Green (CAL-148 [13]) | EC50, CellTox Green (HCC1143 [14]) | EC50, CellTox Green (HCC1599 [15]) | EC50, CellTox Green (HDQ-P1 [16]) | EC50, CellTox Green (MCF-10A [17]) | EC50, CellTox Green (MDA-MB-231 [18]) | EC50, CellTox Green (MDA-MB-436 [19]) | EC50, CellTox Green (MFM-223 [20]) | EC50, CellTox Green (MDA-MB-453) | EC50, CellTox Green (DU-4475) | EC50, CellTox Green (HCC1937 [21])
1 | C=CCn1c(=O)c2cnc(Nc3ccc(N4CCN(C)CC4)cc3)nc2n1-c1cccc(C(C)(C)O)n1 [MK1775] | 558 nM | 249 nM | 569 nM | 829 nM | 632 nM | 190 nM | 303 nM | 350 nM | 797 nM | 120 nM | 190 nM | 621 nM | 318 nM | 301 nM | 349 nM | 182 nM | 1380 nM | 143 nM | 5090 nM | 54.1 nM | 467 nM | 1270 nM | 203 nM | 69.7 nM | 267 nM | – | – | –
2 | CN(Cc1cnc2nc(N)nc(N)c2n1)c1ccc(C(=O)N[C@@H](CCC(=O)O)C(=O)O)cc1 [Methotrexate] | – | – | – | 15.2 nM | – | – | – | – | 25.1 nM | 23.5 nM | – | – | – | 15.9 nM | 51.5 nM | – | – | – | – | – | – | – | – | 17900 nM | – | > 50000 nM | – | –
3 | CO[C@@H]1[C@H](N(C)C(=O)c2ccccc2)C[C@H]2O[C@]1(C)n1c3ccccc3c3c4c(c5c6ccccc6n2c5c31)C(=O)NC4 [Midostaurin] | 414 nM | – | 1490 nM | 822 nM | 617 nM | 237 nM | 477 nM | 204 nM | 490 nM | 1240 nM | – | 130 nM | 1130 nM | 591 nM | 299 nM | 708 nM | 510 nM | – | – | – | 1970 nM | – | 193 nM | – | – | – | – | –
4 | CO[C@@]12[C@H](COC(N)=O)C3=C(C(=O)C(C)=C(N)C3=O)N1C[C@@H]1N[C@@H]12 [Mitomycin C] | – | 2500 nM | 2970 nM | 2380 nM | 1370 nM | 360 nM | 1080 nM | 2680 nM | 2270 nM | 1490 nM | – | – | 8560 nM | 7160 nM | 3560 nM | 3790 nM | – | – | – | – | > 10000 nM | – | – | – | – | – | – | –
5 | CCNC(=O)c1noc(-c2cc(C(C)C)c(O)cc2O)c1-c1ccc(CN2CCOCC2)cc1 [NVP-AUY922] | 38.7 nM | 23.4 nM | 5.61 nM | 32.2 nM | 45.2 nM | 0.76 nM | 6.7 nM | 10.2 nM | 7.89 nM | 6.13 nM | 41.4 nM | 27.6 nM | 9.72 nM | 7.81 nM | 3.74 nM | 5.15 nM | > 1000 nM | 29.5 nM | – | – | 33 nM | 7.61 nM | 9.41 nM | – | – | > 1000 nM | 25.2 nM | 987 nM
6 | CC(C)n1cnc2c(NCCc3ccc(O)cc3)nc(-c3csc4ccccc34)nc21 [StemRegenin 1] | – | – | – | – | – | – | – | – | – | – | – | – | – | – | – | – | – | – | – | – | – | – | – | – | 2810 nM | – | – | –

Now from value to compound, other results behind:

Row | EC50, CellTiter-Glo (HCC1143 [2]) | EC50, CellTiter-Blue viability (BT-474) | EC50, CellTiter-Blue viability (BT-549) | EC50, CellTiter-Blue viability (HCC1143 [6]) | EC50, CellTiter-Blue viability (HCC1599 [7]) | EC50, CellTiter-Blue viability (HCC1937 [8]) | EC50, CellTiter-Blue viability (MDA-MB-231 [9]) | EC50, CellTiter-Blue viability (MDA-MB-436 [10]) | EC50, CellTiter-Blue viability (MDA-MB-468) | EC50, CellTiter-Blue viability (SK-BR-3) | Structure (SMILES) | EC50, CellTiter-Glo (CAL-148 [1]) | EC50, CellTiter-Glo (MCF-10A [3]) | EC50, CellTiter-Blue viability (HDQ-P1 [4]) | EC50, CellTiter-Blue viability (CAL-120 [5]) | EC50, CellTiter-Blue viability (Hs578T) | EC50, CellTiter-Blue viability (MFM-223 [11]) | EC50, CellTox Green (CAL-120 [12]) | EC50, CellTox Green (CAL-148 [13]) | EC50, CellTox Green (HCC1143 [14]) | EC50, CellTox Green (HCC1599 [15]) | EC50, CellTox Green (HDQ-P1 [16]) | EC50, CellTox Green (MCF-10A [17]) | EC50, CellTox Green (MDA-MB-231 [18]) | EC50, CellTox Green (MDA-MB-436 [19]) | EC50, CellTox Green (MFM-223 [20]) | EC50, CellTox Green (MDA-MB-453) | EC50, CellTox Green (DU-4475) | EC50, CellTox Green (HCC1937 [21])
7 | – | – | 373 nM | – | 166 nM | – | 614 nM | – | 109 nM | – | CC1(C)CCC(c2ccc(Cl)cc2)=C(CN2CCN(c3ccc(C(=O)NS(=O)(=O)c4ccc(N[C@H](CCN5CCOCC5)CSc5ccccc5)c(S(=O)(=O)C(F)(F)F)c4)cc3)CC2)C1 [Navitoclax] | 1000 nM | – | 27.4 nM | 235 nM | – | 101 nM | 884 nM | 306 nM | – | – | 289 nM | – | 162 nM | – | 2200 nM | – | – | –
8 | – | 1680 nM | – | 1130 nM | – | 725 nM | 951 nM | – | 1390 nM | 1320 nM | C=CCN(/C=C1/C(=O)O[C@H](COC)[C@@]2(C)C1=C(O)C(=O)C1=C2[C@H](OC(C)=O)C[C@]2(C)C(=O)CC[C@@H]12)CC=C [PX-866] | – | – | 2170 nM | 1020 nM | 6750 nM | – | – | – | – | – | – | – | – | – | – | – | – | –
9 | 13200 nM | – | – | – | – | – | – | – | – | – | O=[N+]([O-])c1ccc2c(c1)S(=O)(=O)C=C2 [Stattic] | 4640 nM | 17400 nM | – | – | – | – | 34300 nM | 3870 nM | 13800 nM | – | 34000 nM | 1190 nM | 5150 nM | 14400 nM | 1230 nM | 27400 nM | – | 349 nM
10 | 4590 nM | 2290 nM | 2860 nM | 2590 nM | 3270 nM | 2480 nM | 3110 nM | – | 1480 nM | 617 nM | O=C(CCCCCCC(=O)Nc1ccccc1)NO [Vorinostat] | 2140 nM | 8980 nM | – | 1720 nM | 3080 nM | 2050 nM | 6840 nM | 8260 nM | 6130 nM | – | – | – | 1720 nM | – | – | – | – | –
